The values below come from article PMC13350973, “Allosteric ensembles elucidate mechanisms of inhibition in the human soluble epoxide hydrolase” (Communications Biology, 2026).

Assay [1] has as its target T1, human soluble epoxide hydrolase (sEH) C-terminal domain (Homo sapiens, UniProt P34913).
T1 construct: gene EPHX2; CTD, amino acids 230–555
T1 sequence (P34913 230-555): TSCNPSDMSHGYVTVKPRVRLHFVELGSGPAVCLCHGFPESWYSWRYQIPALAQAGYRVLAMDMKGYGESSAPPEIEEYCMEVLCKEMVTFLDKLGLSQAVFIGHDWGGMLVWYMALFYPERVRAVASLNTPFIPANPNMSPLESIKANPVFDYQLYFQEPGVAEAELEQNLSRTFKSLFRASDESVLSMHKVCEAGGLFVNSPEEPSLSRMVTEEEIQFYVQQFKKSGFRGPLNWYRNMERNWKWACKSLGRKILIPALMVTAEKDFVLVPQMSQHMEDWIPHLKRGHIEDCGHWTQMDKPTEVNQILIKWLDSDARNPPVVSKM
In words: single injection method kinetic ITC (KM). It is filed as biochemical.

The target in assay [2] is T2, human soluble epoxide hydrolase (sEH) C-terminal domain (Homo sapiens, UniProt P34913, C423S).
T2 construct: gene EPHX2; CTD, amino acids 230–555
T2 sequence (P34913 230-555 C423S): T1 sequence (P34913 230-555) with C194S
In words: single injection method kinetic ITC (KM). The format is biochemical.

Assay [3] concerns the target T3, human soluble epoxide hydrolase (sEH) C-terminal domain (Homo sapiens, UniProt P34913, C522S).
T3 construct: gene EPHX2; CTD, amino acids 230–555
T3 sequence (P34913 230-555 C522S): T1 sequence (P34913 230-555) with C293S
In words: single injection method kinetic ITC (KM). The format is biochemical.

Assay [4] has as its target T4, human soluble epoxide hydrolase (sEH) C-terminal domain, M3 mutant (Homo sapiens, UniProt P34913, R410A/C423S/S439A/R440A/K495A).
T4 construct: gene EPHX2; CTD, amino acids 230–555
T4 sequence (P34913 230-555 R410A/C423S/S439A/R440A/K495A): T1 sequence (P34913 230-555) with R181A, C194S, S210A, R211A, K266A
In words: UV spectra of washed covalent adduct of purified protein; fluorometric PHOME specific activity assay. The format is binding.

For assay [5], the target named is T1, human soluble epoxide hydrolase (sEH) C-terminal domain. In words: spectrofluorometric hydrolysis assay with purified sEH CTD. It is filed as biochemical.

Substitutions are numbered along the chain they refer to.

The term Km denotes the substrate concentration at which the rate is half of its maximum. As for `CCCCCC1OC1C/C=C\C/C=C\C/C=C\CCCC(=O)O` (centres unmarked) [14(15)-EET], the Km in assay [1] was 11.2 ± 0.46 µM; in assay [2] it was 14.6 ± 0.52 µM; in assay [3] it was 24 ± 2.58 µM.

Consider `CCCCC/C=C/C=C1/C(=O)C=C[C@@H]1C/C=C\CCCC(=O)O` [15d-PGJ2], for which, in assay [4], the “UV spectra of washed covalent adduct of purified protein; fluorometric PHOME spe” value is reported as 8.2 fold reduction in enzymatic specific activity.

For the compound `COc1ccc2cc(C(C#N)OC(=O)CC3OC3c3ccccc3)ccc2c1` (centres unmarked) [PHOME, 3-phenyl-cyano(6-methoxy-2-naphthalenyl)methylester-2-oxiraneacetic acid], the “spectrofluorometric hydrolysis assay with purified sEH CTD” value in assay [5] is listed as “(PHOME), which upon sEH enzymatic hydrolysis releases the fluorescent product 6-methoxy-2-naphtaldeyde (6M2N)”.
